Test results from US20240182491A1, “SUBSTITUTED FUSED BICYCLIC MACROCYCLIC COMPOUNDS AND RELATED METHODS OF TREATMENT” (Alkermes, Inc., priority 2021, published 2024).

target: T1, human orexin-2 receptor (OX2R) (Homo sapiens, UniProt O43614); assay: Human OX2R IP1 assay; type: cell-based; conditions: T-Rex CHO cells stably overexpressing human OX2R; inositol monophosphate (IP1) accumulation, 1 hr at 37 degrees C; mean EC50
T1 construct: expressed in transfected cells
T1 sequence (O43614 1-444): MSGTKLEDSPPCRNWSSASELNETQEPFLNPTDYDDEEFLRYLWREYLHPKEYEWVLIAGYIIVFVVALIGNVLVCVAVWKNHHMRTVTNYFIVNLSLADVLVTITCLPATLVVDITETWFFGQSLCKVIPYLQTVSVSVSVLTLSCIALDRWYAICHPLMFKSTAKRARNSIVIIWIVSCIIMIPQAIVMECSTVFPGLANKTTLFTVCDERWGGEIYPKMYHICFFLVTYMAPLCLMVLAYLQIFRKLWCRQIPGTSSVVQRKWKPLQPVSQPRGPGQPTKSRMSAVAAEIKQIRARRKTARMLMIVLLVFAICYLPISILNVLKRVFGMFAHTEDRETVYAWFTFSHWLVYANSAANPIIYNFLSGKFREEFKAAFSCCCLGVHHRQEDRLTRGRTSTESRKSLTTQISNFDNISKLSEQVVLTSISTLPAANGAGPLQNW
Procedure: T-Rex CHO cells stably overexpressing the human orexin-2 receptor (OX2R) were induced overnight with 1 μg/mL of doxycycline in a T225 flask. 24 hours post induction, cells were lifted with accutase and plated into a 384-well proxy plate at 30,000 cells/well. Cells were then treated with different test compounds in 1× stimulation buffer containing 10 mM Hepes, 1 mM CaCl2), 0.5 mM MgCl2, 4.2 mM KCl, 146 mM NaCl, 5.5 mM glucose, and 50 mM LiCl, pH 7.4, for 1 hr at 37 degrees C. Following incubation, the reaction was terminated by the addition of detection mix, which is composed of IP1-d2 and anti-IP1-cryptate diluted in lysis buffer as well as 1× stimulation buffer. The plates were allowed to incubate for 1 hour at room temperature and were then read in the EnVision® multimode plate reader, measuring inositol phosphate levels.
Cisbio IP1 is a cell-based functional assay quantifying the accumulation of inositol monophosphate (IP), a metabolite released as a result of orexin 2 receptor activation through the phospholipase C-Gq signaling pathway. This is a competitive immunoassay in which the IP1 produced by the cells upon receptor activation competes with the IP1 analog coupled to the d2 fluorophore (acceptor) for binding to an anti-IP1 monoclonal antibody labeled with Eu cryptate (donor). The measured HTRF-FRET based signal is inversely proportional to the IP1 concentration produced.
The EC50 values reported in Table 2 were obtained according to the human OX2R IP1 assay described above. Data are the mean EC50 values ±S.E.M.

Structure (SMILES)	EC50
O=C1COc2cc3[nH]ncc3cc2C2CCC(CC2)OCC2[C@@H](NS(=O)(=O)C(F)(F)F)CCN12 (stereo partly drawn) [Compound 5]	100 to 1000 nM
CS(=O)(=O)N[C@H]1CCN2C(=O)COc3cc4[nH]ncc4cc3[C@H]3CC[C@H](CC3)OC[C@@H]12 [Compound 6]	100 to 1000 nM
CS(=O)(=O)N[C@H]1CCCN2C(=O)COc3cc4[nH]ncc4cc3[C@H]3CC[C@H](CC3)OC[C@@H]12 [Compound 10]	< 100 nM
